Results on four compounds are retold here after patent US20170216252A1, “ANTI-BACTERIAL PYRUVATE KINASE MODULATOR COMPOUNDS, COMPOSITIONS, USES AND METHODS” (SIMON FRASER UNIVERSITY, priority 2014, published 2017).

In brackets after ≈: the same amount, converted by molar mass. Read-outs that look alike come from different tables or passages of the source.

For assay [1], the system named is K. pneumoniae (C238). Kind of assay: Broth microdilution MIC. The class given is cell-based. Particulars: Klebsiella pneumoniae; K. pneumoniae (C238); read-out: MIC (μg/mL) A. The procedure: (§1) The antimicrobial activities of PK inhibitor candidates were determined using the 96-well microtiter standard 2-fold serial broth microdilution method as described by CLSI (formerly NCCLS) with the various gram-positive and gram-negative bacteria species mentioned above. Bacteria from a single colony were grown, overnight in either BHI Broth (VRE), mueller hinton broth (S. aureus 29213; MRSA USA400) or L-broth (E. coli, P. aeruginosa, S. typhimuriu, K. Pneumonia and A. baumannii). […] Culture plates were incubated for 18-24 h at 37° C., and optical density at 600 nm (OD600) was measured using a Benchmark Plus™ microplate spectrophotometer (Bio-Rad™). The absorbance control values for the series containing CAMHB and inhibitor were subtracted as background from the corresponding infected wells. The MIC was defined as the lowest concentration of test compound leading to complete inhibition of cell growth in relationship to compound-free control wells as determined by optical density. […] All assays were run in triplicate (Tables 1-6) or duplicate. Experiments were replicated at least twice to verify reproducibility using the above conditions.
(§2) The antimicrobial activity of selected compounds against the gram negative bacteria Klebsiella pneumoniae, Acinetobacter baumannii, E. coli, Pseudomonas aeruginosa and Salmonella typhimurium, as well as additional gram positive bacteria, including drug-resistant strains, was tested according to the procedures provided under “General Methodologies” above.

Assay [2] deals with S. pyogenes (ATCC700294). Kind of assay: Broth microdilution MIC. In kind it is cell-based. As to conditions: Streptococcus pyogenes. On the procedure: as §1, §2
Assay [3] has as its system A. baumannii (ATCC 19606). Kind of assay: Broth microdilution MIC. In kind it is cell-based. Particulars: Acinetobacter baumannii, ATCC19606; A. baumannii (ATCC 19606); read-out: MIC (μg/mL) B. The procedure: as §1, §2
Assay [4] relates to MRSA MW2 (USA400). Put plainly: Broth microdilution MIC. In kind it is cell-based. As to conditions: Staphylococcus aureus; MRSA MW2 (USA400); read-out: MIC (μg/mL) G. The procedure: as §1, §2
The test system of assay [5] is VRE#2 (2010A). Kind of assay: Broth microdilution MIC. In kind it is cell-based, vancomycin-resistant Enterococcus. As to conditions: Enterococcus; VRE#2 (2010A); read-out: MIC (μg/mL) F. On the procedure: as §1, §2
The subject of assay [6] is S. aureus ATCC 29213. Kind of assay: In vitro susceptibility, broth microdilution MIC. In kind it is cell-based, Staphylococcus aureus. The essentials:
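The MIC against S. aureus 29213 was determined by CLSI 2-fold serial broth microdilution in Mueller Hinton broth. Plates were incubated for 18–24 h at 37 °C and read at OD600 with background subtracted. The MIC was the lowest concentration giving complete growth inhibition versus compound-free wells.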

Assay [7] concerns S. typhimurium (SL 1344). Put plainly: Broth microdilution MIC. In kind it is cell-based. As to conditions: Salmonella enterica. On the procedure:
as §1, §2

Assay [8] deals with P. aeruginosa (PA01). Kind of assay: Broth microdilution MIC. The class given is cell-based. As to conditions: Pseudomonas aeruginosa. On the procedure: as §1, §2
For assay [9], the target named is T1, MRSA PK (Staphylococcus aureus, UniProt Q6GG09).
T1 construct: His tag (pET-28a(+) vector) (N); made in house; host or cells: E. coli BL-21 (DE3)
Kind of assay: MRSA PK activity, continuous LDH-coupled assay. The class given is biochemical, S. aureus (MRSA strain Sanger 252). In short, it runs like this: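 Purified His-tagged MRSA PK (15 nM, E. coli-expressed) started reactions run up to 5 min at 30 °C. Activity was followed continuously by LDH-coupled NADH oxidation at 340 nm, with DMSO ≤1%. IC50 came from four-parameter variable-slope fits.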

Assay [10] deals with E. coli (DAS 1-IMP). Kind of assay: microbe, parasite or virus in culture. The class given is cell-based, Escherichia coli. Particulars: for MIC: Escherichia coli, read-out: MIC (μg/mL) C, E. coli (DAS 1-IMP). On the procedure:
as §1, §2

The mark [11] stands for this setting: Staphylococcus aureus, ATCC29213, S. aureus (ATCC29213), Table 9, read-out: MIC (μg/mL) H.
[12] abbreviates: Staphylococcus aureus, ATCC29213, Table 8, tested at least in duplicate, differing values all given, read-out: MIC.
The mark [13] stands for this setting: Table 8, tested at least in duplicate, differing values all given.

T1 sequence (Q6GG09 whole entry): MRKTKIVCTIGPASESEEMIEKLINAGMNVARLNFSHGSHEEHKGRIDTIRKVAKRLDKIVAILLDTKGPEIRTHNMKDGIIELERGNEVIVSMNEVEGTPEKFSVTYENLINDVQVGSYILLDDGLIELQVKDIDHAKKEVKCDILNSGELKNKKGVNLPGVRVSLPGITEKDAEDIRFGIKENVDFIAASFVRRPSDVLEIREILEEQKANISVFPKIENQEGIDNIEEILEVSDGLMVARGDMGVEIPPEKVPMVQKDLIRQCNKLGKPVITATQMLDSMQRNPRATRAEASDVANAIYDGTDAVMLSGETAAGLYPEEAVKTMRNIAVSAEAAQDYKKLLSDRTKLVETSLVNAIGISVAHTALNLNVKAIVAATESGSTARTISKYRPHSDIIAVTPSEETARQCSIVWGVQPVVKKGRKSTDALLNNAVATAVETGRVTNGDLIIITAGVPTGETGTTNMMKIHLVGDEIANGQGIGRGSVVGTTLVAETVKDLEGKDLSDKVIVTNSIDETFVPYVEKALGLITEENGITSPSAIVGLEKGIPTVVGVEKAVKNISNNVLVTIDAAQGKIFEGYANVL

With `COc1cccc(OC)c1C(=O)N[C@@H]1C(=O)N2[C@@H]1SC(C)(C)[C@@H]2C(=O)O` [Methicillin, methicillin, reference compound], the MIC in assay [1] was 4 µg/mL (≈ 10.5 µM); in [2] it was 1 µg/mL (≈ 2.63 µM); in [3] it was more than 64 µg/mL; in [4] it was 32 µg/mL (≈ 84.1 µM); in assay [5] it was 64 µg/mL (≈ 168 µM); in [6] (setting [11]), 2 µg/mL (≈ 5.26 µM).
For the compound `O=C(O)c1c(/C=C/c2ccc(Cl)cc2)[nH]c2cc(Br)ccc12` [Compound 123, (E)-6-Bromo-2-(4-chlorostyryl)-1H-indole-3-carboxylic acid], the MIC in [1] is 32 µg/mL (≈ 85 µM); in assay [7], more than 64 µg/mL; in assay [3], 64 µg/mL (≈ 170 µM); in [4] it was 32 µg/mL (≈ 85 µM); in assay [8] it was more than 64 µg/mL; in [10] it was 64 µg/mL (≈ 170 µM). The MIC was found to be 32 µg/mL (≈ 85 µM) in [5] and 16 µg/mL (≈ 42.5 µM) in assay [6] (setting [11]). In addition, the concentration for half-maximal inhibition (IC50) in assay [9] lay within 100 to 1000 nM.
Consider `COC(=O)c1c(/C=C/c2ccc(Cl)cc2)[nH]c2cc(Br)ccc12` [Compound 124, (E)-methyl 6-bromo-2-(4-chlorostyryl)-1H-indole-3-carboxylate], for which the MIC in assay [1] is 2 µg/mL (≈ 5.12 µM); in assay [7] it was more than 64 µg/mL; in [3], more than 64 µg/mL; in assay [4], 2 µg/mL (≈ 5.12 µM); in assay [8], more than 64 µg/mL; in assay [10], more than 64 µg/mL. In addition, the MIC in [5] was determined as 8 µg/mL (≈ 20.5 µM); in [6] (setting [11]), 2 µg/mL (≈ 5.12 µM); in assay [6] (setting [12]), 4 µg/mL (≈ 10.2 µM); in [6] (setting [13]), 2 µg/mL (≈ 5.12 µM). Also, the IC50 in assay [9] was less than 50 nM.
Turning to `O=C(c1c(CCc2ccc(Cl)cc2)[nH]c2cc(Br)ccc12)C(F)(F)F` [Compound 167, 1-(6-Bromo-2-(4-chlorophenethyl)-1H-indol-3-yl)-2,2,2-trifluoroethanone], the MIC in [1] is 1 µg/mL (≈ 2.32 µM); in assay [2], 2 µg/mL (≈ 4.64 µM); in assay [7], more than 64 µg/mL; in [3] it was more than 64 µg/mL; in [8] it was more than 64 µg/mL; in [10] it was 4 µg/mL (≈ 9.29 µM). In addition, the MIC in assay [5] came to 1 µg/mL (≈ 2.32 µM); in assay [6] (setting [11]), 1.5 µg/mL (≈ 3.48 µM); in assay [6] (setting [12]), 2 µg/mL (≈ 4.64 µM); in assay [6] (setting [13]), 1 µg/mL (≈ 2.32 µM). The compound further showed a half-maximal inhibitory concentration (IC50) in [9] of 100 to 1000 nM. The “MIC (μg/mL) C” value in assay [10] (E. coli (DAS 1-IMP)) was found to be 8 µg/mL (≈ 18.6 µM).
